# What was measured:
# [1] = molecular target: T1, Bifunctional methylenetetrahydrofolate dehydrogenase/cyclohydrolase, mitochondrial (Homo sapiens, UniProt P13995); assay: Inhibition of recombinant MTHFD2 (unknown origin) using THF as substrate incubated for 30 mins in presence of NAD
# T1 sequence (P13995 whole entry): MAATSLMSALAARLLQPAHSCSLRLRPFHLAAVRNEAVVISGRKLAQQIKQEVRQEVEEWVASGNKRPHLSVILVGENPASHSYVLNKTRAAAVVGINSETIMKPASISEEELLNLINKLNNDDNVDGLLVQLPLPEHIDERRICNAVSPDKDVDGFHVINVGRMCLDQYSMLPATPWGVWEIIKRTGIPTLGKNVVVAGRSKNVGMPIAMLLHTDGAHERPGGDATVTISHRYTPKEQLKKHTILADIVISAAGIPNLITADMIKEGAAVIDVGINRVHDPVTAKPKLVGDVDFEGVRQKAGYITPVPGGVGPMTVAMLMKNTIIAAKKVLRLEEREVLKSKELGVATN
# [2] = Lipophilicity, logP of compound; type: physicochemical; conditions: octanol/water
# [3] = Antiproliferative activity against human MDA-MB-231-luc-D3H2LN cells assessed as inhibition of growth after 3 days by CellTiter Glo assay; type: functional; conditions: 72 h
# [4] = Lipophilicity, logD of compound; type: physicochemical; conditions: octanol/water
# [5] = Dissociation constant, acidic pKa of compound; type: physicochemical
# [6] = Effective permeability of compound at pH 7.4 by PAMPA; type: ADME; conditions: read-out: Peff
# [7] = molecular target: T2, C-1-tetrahydrofolate synthase, cytoplasmic (Homo sapiens, UniProt P11586)
# T2 sequence (P11586 whole entry): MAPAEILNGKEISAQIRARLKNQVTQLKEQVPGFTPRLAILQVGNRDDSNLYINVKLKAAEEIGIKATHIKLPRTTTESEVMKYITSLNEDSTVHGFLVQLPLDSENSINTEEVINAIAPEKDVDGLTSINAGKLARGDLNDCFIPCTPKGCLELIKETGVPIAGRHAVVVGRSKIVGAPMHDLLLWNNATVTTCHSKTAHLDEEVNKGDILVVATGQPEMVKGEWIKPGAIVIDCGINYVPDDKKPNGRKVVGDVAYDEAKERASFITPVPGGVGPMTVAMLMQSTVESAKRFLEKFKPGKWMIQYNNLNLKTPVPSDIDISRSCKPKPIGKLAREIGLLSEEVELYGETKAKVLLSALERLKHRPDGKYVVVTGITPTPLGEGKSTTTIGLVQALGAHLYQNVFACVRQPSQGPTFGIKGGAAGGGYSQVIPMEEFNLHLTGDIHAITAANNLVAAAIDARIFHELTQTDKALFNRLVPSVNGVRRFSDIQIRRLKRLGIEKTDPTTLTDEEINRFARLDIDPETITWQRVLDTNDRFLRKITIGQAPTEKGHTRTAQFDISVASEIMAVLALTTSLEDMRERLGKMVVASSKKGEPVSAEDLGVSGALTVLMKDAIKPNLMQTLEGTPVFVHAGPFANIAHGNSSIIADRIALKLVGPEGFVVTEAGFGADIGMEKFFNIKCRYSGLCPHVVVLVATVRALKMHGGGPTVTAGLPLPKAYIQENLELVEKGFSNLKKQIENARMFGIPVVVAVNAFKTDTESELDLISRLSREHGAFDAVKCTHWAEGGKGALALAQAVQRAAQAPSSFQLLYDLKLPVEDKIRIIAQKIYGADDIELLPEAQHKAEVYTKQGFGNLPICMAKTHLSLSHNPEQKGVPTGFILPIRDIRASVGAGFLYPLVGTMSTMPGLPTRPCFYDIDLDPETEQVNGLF
# Description: Inhibition of recombinant MTHFD1 (unknown origin) using THF as substrate incubated for 30 mins in presence of NAD
# [8] = AUC in BALBc mouse at 10 mg/kg, po measured for 24 hrs by LC-MS/MS analysis; type: ADME, organism-based; conditions: in vivo
# [9] = AUC in BALBc mouse at 100 mg/kg, po measured for 24 hrs by LC-MS/MS analysis; type: ADME, organism-based; conditions: in vivo
# [10] = AUC in BALBc mouse at 30 mg/kg, po measured for 24 hrs by LC-MS/MS analysis; type: ADME, organism-based; conditions: in vivo
# [11] = AUC in BALBc mouse at 300 mg/kg, po measured for 24 hrs by LC-MS/MS analysis; type: ADME, organism-based; conditions: in vivo
# [12] = Cmax in BALBc mouse at 10 mg/kg, po measured for 24 hrs by LC-MS/MS analysis; type: ADME, organism-based; parameters: dose 10 mg/kg, route oral; conditions: in vivo
# [13] = Cmax in BALBc mouse at 30 mg/kg, po measured for 24 hrs by LC-MS/MS analysis; type: ADME, organism-based; parameters: dose 30 mg/kg, route oral; conditions: in vivo
# [14] = Cmax in BALBc mouse at 100 mg/kg, po measured for 24 hrs by LC-MS/MS analysis; type: ADME, organism-based; parameters: dose 100 mg/kg, route oral; conditions: in vivo
# [15] = Cmax in BALBc mouse at 300 mg/kg, po measured for 24 hrs by LC-MS/MS analysis; type: ADME, organism-based; parameters: dose 300 mg/kg, route oral; conditions: in vivo
# [16] = Half life in BALBc mouse at 10 mg/kg, po measured for 24 hrs by LC-MS/MS analysis; type: ADME, organism-based; conditions: in vivo
# [17] = Half life in BALBc mouse at 30 mg/kg, po measured for 24 hrs by LC-MS/MS analysis; type: ADME, organism-based; conditions: in vivo
# [18] = Half life in BALBc mouse at 100 mg/kg, po measured for 24 hrs by LC-MS/MS analysis; type: ADME, organism-based; conditions: in vivo
# [19] = Half life in BALBc mouse at 300 mg/kg, po measured for 24 hrs by LC-MS/MS analysis; type: ADME, organism-based; conditions: in vivo
# [20] = Effective permeability of compound at pH 5 by PAMPA; type: ADME; conditions: read-out: Peff
# [21] = Solubility of compound in pH 1.2; type: physicochemical; conditions: buffer
# [22] = Solubility of compound in pH 6.8; type: physicochemical; conditions: buffer
# [23] = Metabolic stability in mouse liver microsomes assessed as remaining parent compound at 1 uM after 0.5 hrs; type: ADME, Microsome; conditions: read-out: Stability
# [24] = Fraction unbound in mouse plasma; type: ADME, cell-free
# [25] = Free plasma concentration in BALBc mouse at 10 to 300 mg/kg, po measured after 24 hrs by LC-MS/MS analysis; type: ADME, organism-based; conditions: in vivo
# [26] = Antitumor activity against human MDA-MB-231-Luc cells xenografted in BALB/cAJcl nu/nu mouse assessed as tumour growth inhibition at 300 mg/kg, po administered bid for 11 days and measured every 2 to 3 days relative to control; type: functional; conditions: read-out: TGI
# [27] = Toxicity in BALB/cAJcl nu/nu mouse xenografted with human MDA-MB-231-Luc cells assessed as body weight loss at 300 mg/kg, po administered bid for 11 days and measured every 1 to 2 days; type: organism-based; conditions: in vivo
structure (smiles),measurement,setting,value
Cc1c(N2CCN(C)[C@H](C)C2)ccc2c3c(c(=O)oc12)CN(C(=O)c1ccc(NS(C)(=O)=O)c(Cl)c1)CC3,IC50,[1],130 nM
same,logP,[2],2
same,GI50,[3],1700 nM
Cc1c(N2CCN(C)[C@@H](C)C2)ccc2c3c(c(=O)oc12)CN(C(=O)c1ccc(NS(C)(=O)=O)c(Cl)c1)CC3,logP,[2],2
same,GI50,[3],200 nM
same,logD,[4],1.6
Cc1c(N2CCN(C)CC2)ccc2c3c(c(=O)oc12)CN(C(=O)c1ccc(NS(C)(=O)=O)cc1)CC3,IC50,[1],200 nM
same,pKa,[5],8.2
same,Papp,[6],5.4 ×10⁻⁶ cm/s
same,logP,[2],1.6
same,GI50,[3],6300 nM
same,IC50,[7],> 30 µM
CN(C)CCCOc1ccc2c3c(c(=O)oc2c1)CN(C(=O)c1ccc(C(=O)O)cc1)CC3,IC50,[1],360 nM
same,IC50,[7],18.7 µM
COc1cc(C(=O)N2CCc3c(c(=O)oc4c(C)c(N5CCN(C)CC5)ccc34)C2)ccc1NS(C)(=O)=O,IC50,[1],400 nM
same,pKa,[5],8.4
same,Papp,[6],44.2 ×10⁻⁶ cm/s
same,logP,[2],1.6
same,GI50,[3],10000 nM
same,IC50,[7],> 30 µM
Cc1c(N2C[C@@H](C)N(C)[C@@H](C)C2)ccc2c3c(c(=O)oc12)CN(C(=O)c1ccc(NS(C)(=O)=O)c(Cl)c1)CC3,logP,[2],2.2
same,GI50,[3],760 nM
same,logD,[4],1.7
CN(C)CCOc1ccc2c3c(c(=O)oc2c1)CN(C(=O)c1ccc(C(=O)O)cc1)CC3,IC50,[1],340 nM
same,IC50,[7],> 30 µM
Cc1c(OCCN(C)C)ccc2c3c(c(=O)oc12)CN(C(=O)c1ccc2c(c1)CS(=O)(=O)N2)CC3,IC50,[1],53 nM
same,IC50,[7],8.4 µM
Cc1c(N2CCN(C)CC2)ccc2c3c(c(=O)oc12)CN(C(=O)c1ccc(NS(C)(=O)=O)c(F)c1)CC3,IC50,[1],38 nM
same,pKa,[5],6.9
same,Papp,[6],16.9 ×10⁻⁶ cm/s
same,logP,[2],1.7
same,GI50,[3],2000 nM
same,IC50,[7],8 µM
CN1CCC(Oc2ccc3c4c(c(=O)oc3c2)CN(C(=O)c2ccc(C(=O)O)cc2)CC4)CC1,IC50,[1],390 nM
same,IC50,[7],27 µM
Cc1c(OCCN(C)C)ccc2c3c(c(=O)oc12)CN(C(=O)c1ccc(C(=O)O)cc1)CC3,IC50,[1],49 nM
same,IC50,[7],5 µM
Cc1cc(C(=O)N2CCc3c(c(=O)oc4c(C)c(N5CCN(C)CC5)ccc34)C2)ccc1NS(C)(=O)=O,IC50,[1],530 nM
same,pKa,[5],8.3
same,Papp,[6],23.1 ×10⁻⁶ cm/s
same,logP,[2],1.8
same,GI50,[3],7700 nM
same,IC50,[7],> 30 µM
Cc1cc2c3c(c(=O)oc2cc1OCCN(C)C)CN(C(=O)c1ccc(C(=O)O)cc1)CC3,IC50,[1],> 30000 nM
same,IC50,[7],> 30 µM
CN(C)c1ccc(-c2ccc3c4c(c(=O)oc3c2)CN(C(=O)c2ccc(C(=O)O)cc2)CC4)cc1,IC50,[1],3800 nM
same,IC50,[7],5.4 µM
Cc1cccc2oc(=O)c3c(c12)CCN(C(=O)c1ccc(C(=O)O)cc1)C3,IC50,[1],1300 nM
same,IC50,[7],> 30 µM
Cc1c(N2CCN(C)CC2)ccc2c3c(c(=O)oc12)CN(C(=O)c1ccc(NS(C)(=O)=O)c(Br)c1)CC3,IC50,[1],33 nM
same,pKa,[5],6.8
same,Papp,[6],> 50 ×10⁻⁶ cm/s
same,logP,[2],1.9
same,GI50,[3],1600 nM
same,IC50,[7],4.2 µM
Cc1c(N2CCN(C)CC2)ccc2c3c(c(=O)oc12)CN(C(=O)c1ccc2c(c1)CS(=O)(=O)N2)CC3.O=C(O)C(F)(F)F,IC50,[1],18 nM
same,pKa,[5],5.7
same,Papp,[6],< 0.1 ×10⁻⁶ cm/s
same,logP,[2],1.6
same,GI50,[3],19000 nM
same,IC50,[7],5.2 µM
CN(C)Cc1ccc(-c2ccc3c4c(c(=O)oc3c2)CN(C(=O)c2ccc(C(=O)O)cc2)CC4)cc1,IC50,[1],340 nM
same,IC50,[7],23 µM
Cc1c(N2CCN(C)CC2)ccc2c3c(c(=O)oc12)CN(C(=O)c1cc(Cl)cc(NS(C)(=O)=O)c1)CC3,IC50,[1],89 nM
same,Papp,[6],6.6 ×10⁻⁶ cm/s
same,logP,[2],1.8
same,GI50,[3],5500 nM
same,IC50,[7],> 30 µM
CN1CCN(c2ccc3c4c(c(=O)oc3c2)CN(C(=O)c2ccc(C(=O)O)cc2)CC4)CC1,IC50,[1],320 nM
same,IC50,[7],> 30 µM
Cc1c(N2CCN(C)CC2)ccc2c3c(c(=O)oc12)CN(C(=O)c1ccc(NS(C)(=O)=O)c(OC(F)(F)F)c1)CC3,pKa,[5],6.8
same,Papp,[6],43.7 ×10⁻⁶ cm/s
same,logP,[2],1.9
same,GI50,[3],380 nM
Cc1c(N2CCN(C)CC2)ccc2c3c(c(=O)oc12)CN(C(=O)c1ccc(NS(C)(=O)=O)c(Cl)c1)CC3,pKa,[5],6.8
same,Papp,[6],31.1 ×10⁻⁶ cm/s
same,logP,[2],1.8
same,GI50,[3],940 nM
same,logD,[4],1.3
same,AUC at 24 h,[8],25300 ng·h/mL
same,AUC at 24 h,[9],306 µg·h/mL
same,AUC at 24 h,[10],79200 ng·h/mL
same,AUC at 24 h,[11],929 µg·h/mL
same,Cmax,[12],3660 ng/mL
same,Cmax,[13],12700 ng/mL
same,Cmax,[14],37900 ng/mL
same,Cmax,[15],82.6 µg/mL
same,half-life,[16],164 min
same,half-life,[17],201 min
same,half-life,[18],211 min
same,half-life,[19],139 min
same,Papp,[20],7.2 ×10⁻⁶ cm/s
same,solubility,[21],240 µg/mL
same,solubility,[22],120 µg/mL
same,"remaining at 0.5 h, 1 µM",[23],91%
same,fraction unbound,[24],0.153
same,Cp(f),[25],0 µg/mL
same,inhibition in vivo at 300 mg/kg,[26],43%
same,Activity,[27],Non-Toxic
